In patent US11286251B2, “Matrix metalloproteinase inhibitors and imaging agents, and methods using same” (Yale University, priority 2016, dated 2022):
“Also recorded” adds a separate entry of the source. Like-named read-outs stand apart in the source and are kept apart here.

Experiments:
[1] = molecular target: T1, rhMMP-2 (Homo sapiens, UniProt P08253); experiment: MMP inhibition assay, fluorogenic substrate cleavage (Ki)
T1 sequence (P08253 110-660): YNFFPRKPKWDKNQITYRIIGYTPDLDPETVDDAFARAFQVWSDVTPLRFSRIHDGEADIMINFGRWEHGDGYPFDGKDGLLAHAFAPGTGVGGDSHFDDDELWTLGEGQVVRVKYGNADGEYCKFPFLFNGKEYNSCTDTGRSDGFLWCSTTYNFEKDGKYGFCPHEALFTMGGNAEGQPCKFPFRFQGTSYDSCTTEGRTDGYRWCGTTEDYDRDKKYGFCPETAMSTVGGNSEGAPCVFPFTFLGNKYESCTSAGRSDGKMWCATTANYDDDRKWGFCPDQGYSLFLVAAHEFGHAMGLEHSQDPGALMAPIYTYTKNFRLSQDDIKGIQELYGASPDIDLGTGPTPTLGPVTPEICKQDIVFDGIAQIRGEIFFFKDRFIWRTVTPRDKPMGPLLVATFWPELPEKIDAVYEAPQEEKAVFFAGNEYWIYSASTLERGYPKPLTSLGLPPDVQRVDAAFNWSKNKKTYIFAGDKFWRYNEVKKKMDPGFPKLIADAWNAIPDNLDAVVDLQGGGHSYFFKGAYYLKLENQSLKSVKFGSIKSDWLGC
Method: (§1) MMP inhibition assays were carried out in 50 mM Tris/HCl buffer, pH=6.8, 10 mM CaCl2 at 25° C. […] Titration experiments were carried out to determine active enzyme concentration for each MMP prior to the assay.
(§2) The recombinant human MMPs including rhMMP-2, rhMMP-9, and rhMMP-12 obtained from R&D Systems (Minneapolis, Minn., USA) were activated by 1 mM p-aminophenylmercuric acetate (APMA, Sigma) at 37° C. for certain hours according to the manufacturer's instructions. The activated MMPs were diluted in the assay buffer consisting of 50 mM Tris, 10 mM CaCl2, 150 mM NaCl, 0.05% Brij-35 (w/v), pH 7.5 (TCNB). The assays were carried out in 96-well non-binding surface black microplates (Fisher Scientific).
(§3) The solutions were incubated at room temperature for 20 min. 10 μL of the fluorogenic MMP substrate i.e. Mca-KPLGL-Dpa-AR-NH2 (R&D Systems) at 4 different concentrations (such as 50.0 μM, 40.0 μM, 30.0 μM, and 20.0 μM) in assay buffer were added before starting the fluorescence measurements. […] The inhibition constants (Ki) of the inhibitor with MMPs were calculated from the mean velocity values using GraphPad Prism 6 by the equation:

[2] = molecular target: rhMMP-9 (Homo sapiens, UniProt P14780); experiment: as above
Method: as §1, §2, §3

[3] = molecular target: rhMMP-12 (Homo sapiens, UniProt P39900); experiment: as above
Method: (§4) MMPs were purchased from R&D Systems (Minneapolis, Minn.). MMP inhibition assays were carried out in 50 mM Tris/HCl buffer, pH=6.8, 10 mM CaCl2 at 25° C. […] Titration experiments were carried out to determine active enzyme concentration for each MMP prior to the assay. For each probe, the % of inhibition was determined from five different concentrations in triplicates, chosen to reach a range of 20-80% inhibition.
as §2
(§5) The solutions were incubated at room temperature for 20 min. 10 μL of the fluorogenic MMP substrate i.e. Mca-KPLGL-Dpa-AR-NH2 (R&D Systems) at 4 different concentrations (such as 50.0 μM, 40.0 μM, 30.0 μM, and 20.0 μM) in assay buffer were added before starting the fluorescence measurements. The kinetics (v) of fluorescence changes were measured at excitation and emission wavelengths of 320 nm and 405 nm for 30 min (1.44 min intervals, sensitivity 100, shaking intensity 4, duration 30 s) by a fluorescent plate reader (BIO-TEK/Synergy HT). The inhibition constants (Ki) of the inhibitor with MMPs were calculated from the mean velocity values using GraphPad Prism 6 by the equation:

[4] = molecular target: rhMMP-13 (Homo sapiens, UniProt P45452); experiment: as above; settings: read-out: Ki rhMMP-13; mean ± SE
Method: as §4, §2, §5

[5] = molecular target: T2, rhMMP-7 (Homo sapiens, UniProt P09237); experiment: as above; settings: read-out: Ki rhMMP-7; mean ± SE
T2 sequence (P09237 95-267): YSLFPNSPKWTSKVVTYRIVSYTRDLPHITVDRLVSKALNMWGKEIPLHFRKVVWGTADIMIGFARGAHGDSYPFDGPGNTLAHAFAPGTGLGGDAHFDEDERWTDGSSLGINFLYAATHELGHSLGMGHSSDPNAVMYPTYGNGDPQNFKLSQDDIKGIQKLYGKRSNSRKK
Method: as §4, §2, §5

[6] = Aqueous solubility; type: physicochemical
[7] = tested on: rhMMPs; experiment: In vitro MMP binding screens (panel); settings: several MMPs
Method: as §4, §2, §5

[8] = read-out: Ki rhMMP-2, mean ± SE
[9] = read-out: Ki rhMMP-9, mean ± SE
[10] = read-out: Ki rhMMP-12, mean ± SE

Sequence of rhMMP-12 (P39900 106-470): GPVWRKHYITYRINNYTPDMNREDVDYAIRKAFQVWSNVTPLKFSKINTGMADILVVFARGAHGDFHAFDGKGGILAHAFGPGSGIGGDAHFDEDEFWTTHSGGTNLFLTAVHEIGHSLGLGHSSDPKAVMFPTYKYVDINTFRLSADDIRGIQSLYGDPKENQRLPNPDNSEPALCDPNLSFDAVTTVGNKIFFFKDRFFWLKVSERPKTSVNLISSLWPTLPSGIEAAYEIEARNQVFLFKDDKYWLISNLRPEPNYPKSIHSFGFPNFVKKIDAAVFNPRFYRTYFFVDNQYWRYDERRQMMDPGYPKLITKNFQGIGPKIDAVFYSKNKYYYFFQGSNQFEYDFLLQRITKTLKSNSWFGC
Sequence of rhMMP-9 (P14780 107-707 limits assumed): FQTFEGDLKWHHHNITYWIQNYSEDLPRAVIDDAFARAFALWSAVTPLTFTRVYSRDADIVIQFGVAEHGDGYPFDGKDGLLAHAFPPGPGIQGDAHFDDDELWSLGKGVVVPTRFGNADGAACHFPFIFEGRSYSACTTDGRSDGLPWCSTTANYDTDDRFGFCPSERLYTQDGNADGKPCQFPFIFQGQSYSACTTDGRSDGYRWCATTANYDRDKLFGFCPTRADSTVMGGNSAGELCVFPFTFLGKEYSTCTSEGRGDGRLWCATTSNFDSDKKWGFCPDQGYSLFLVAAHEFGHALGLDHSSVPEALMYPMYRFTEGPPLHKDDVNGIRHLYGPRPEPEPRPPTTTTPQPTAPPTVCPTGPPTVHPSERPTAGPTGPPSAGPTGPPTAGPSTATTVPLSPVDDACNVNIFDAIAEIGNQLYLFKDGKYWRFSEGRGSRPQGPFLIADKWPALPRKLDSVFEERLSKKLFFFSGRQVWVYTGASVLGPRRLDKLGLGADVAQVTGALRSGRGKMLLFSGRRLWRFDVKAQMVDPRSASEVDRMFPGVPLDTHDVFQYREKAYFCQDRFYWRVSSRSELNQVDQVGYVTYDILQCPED

| SMILES | Ki [1, 8] [nM] | Ki [2, 9] [nM] | Ki [3, 10] [nM] | Ki [4] [nM] | Ki [3] [nM] | Ki [5] [nM] | affinity for rhMMP-2 (in words) [1] | affinity for rhMMP-9 (in words) [2] | water solubility (in words) [6] | MMP binding / inhibition constants (in words) [7] | affinity for rhMMP-12 (in words) [3] | Ki [1] [nM] | Ki [2] [nM] |
| --- | --- | --- | --- | --- | --- | --- | --- | --- | --- | --- | --- | --- | --- |
| CC(C)CC1C(=O)NC(C(=O)NCCOCCOCCOCCF)Cc2ccc(cc2)OCCCC1C(=O)NO [Compound 17, (6S,7R,10S)—N10-(2-(2-(2-(2-fluoroethoxy)ethoxy)ethoxy)ethyl)-N^6-hydroxy-7-isobutyl-8-oxo-2-oxa-9-aza-1(1,4)-benzenacycloundecaphane-6,10-dicarboxamide] | 8.6 ± 1.3 | 8.8 ± 0.8 | 2.1 ± 0.3 | – | – | – | – | – | – | – | – | – | – |
| CNC(=O)[C@H](Cc1c[nH]c2ccccc12)NC(=O)[C@@H](CC(=O)NO)CC(C)C [GM-6001, reference compound] | – | – | – | 0.3 | 0.57 | 0.4 | – | – | – | – | – | – | – |
| CC(C)CC1C(=O)NC(C(=O)NC(CCCNC(=N)N)C(=O)NCCNC(=O)c2ccc(NN)nc2)Cc2ccc(cc2)OCCCC1C(=O)NO [Compound 1, (6S,7R,10S)—N^10—((S)-5-guanidino-1-((2-(6-hydrazinylnicotinamido)ethyl)amino)-1-oxopentan-2-yl)-N^6-hydroxy-7-isobutyl-8-oxo-2-oxa-9-aza-1(1,4)-benzenacycloundecaphane-6,10-dicarboxamide] | 10.4 | 17.4 ± 2.1 | 2.2 ± 0.5 | 16.9 ± 2.7 | – | 33.2 ± 5 | high affinity | high affinity | good aqueous solubility; also recorded: good water solubility | MMP binding profiles similar to the RP805 precursor; also recorded: nanomolar range inhibition constants | high affinity | – | – |
| CNC(=O)[C@H](CCCNC(=N)N)NC(=O)[C@@H]1Cc2ccc(cc2)OCCC[C@H](C(=O)NO)[C@@H](CC(C)C)C(=O)N1 [Compound 19, (6S,7R,10S)—N10-((S)-5-guanidino-1-(methylamino)-1-oxopentan-2-yl)-N6-hydroxy-7-isobutyl-8-oxo-2-oxa-9-aza-1(1,4)-benzenacycloundecaphane-6,10-dicarboxamide] | 5.8 ± 0.4 | 20.4 ± 2 | 1 ± 0.2 | 15.3 ± 5.4 | – | 17.1 ± 0.1 | – | – | – | MMP binding profiles similar to the RP805 precursor | – | – | – |
| CC(C)C[C@H]1C(=O)N[C@H](C(=O)O)Cc2ccc(cc2)OCCC[C@@H]1C(=O)NO [Compound 20, (6S,7R,10S)-6-(hydroxycarbamoyl)-7-isobutyl-8-oxo-2-oxa-9-aza-1(1,4)-benzenacycloundecaphane-10-carboxylic acid] | – | – | – | – | 1.7 ± 0.2 | – | – | – | – | – | – | 101 ± 12.2 | 60.6 ± 11 |
